Earlier results as cited in patent US20060200870A1, “Methods of treating muscular dystrophy” (priority 2004, published 2006).
Entries after “also recorded” stand apart in the source; their conditions may differ.

Key:
humans with DMD = conditions: humans (males) with DMD
[1] = test system: derangements or deficiencies in AGAT activity; conditions: oral creatine
patients with DMD = conditions: 0.75 mg/kg in intermittent regimens

| Structure (SMILES) | benefit / therapeutic effect of oral creatine supplementation (humans with DMD) | benefit of oral creatine supplementation (mdx mice) | success in overcoming derangements or deficiencies in AGAT activity [1] | independent ambulation (patients with DMD; some patients) | adverse side-effects (patients with DMD; weight-gain, osteopenia, hirsutism, cushingoid facies, behavioral and endocrinology-related issues) |
| --- | --- | --- | --- | --- | --- |
| CN(CC(=O)O)C(=N)N [creatine] | no such clear benefit; also recorded: has not been shown to have a significant therapeutic effect | some benefits | partially successful | – | – |
| C[C@]12C=CC(=O)C=C1CC[C@@H]1[C@@H]2C(=O)C[C@@]2(C)[C@H]1CC[C@]2(O)C(=O)CO [prednisone] | – | – | – | can help prolong independent ambulation | significant adverse side-effects |
